According to patent US9127040B2, “Regulation of sodium channels by PLUNC proteins” (The University of North Carolina at Chapel Hill, priority 2011, dated 2015):

T1: αβγENaC (Rattus norvegicus, UniProt P37089+P37090+P37091)
T1 construct: expressed in transfected cells; host or cells: Xenopus laevis oocytes (cRNA injection)
T1 sequence (P37089 1-698): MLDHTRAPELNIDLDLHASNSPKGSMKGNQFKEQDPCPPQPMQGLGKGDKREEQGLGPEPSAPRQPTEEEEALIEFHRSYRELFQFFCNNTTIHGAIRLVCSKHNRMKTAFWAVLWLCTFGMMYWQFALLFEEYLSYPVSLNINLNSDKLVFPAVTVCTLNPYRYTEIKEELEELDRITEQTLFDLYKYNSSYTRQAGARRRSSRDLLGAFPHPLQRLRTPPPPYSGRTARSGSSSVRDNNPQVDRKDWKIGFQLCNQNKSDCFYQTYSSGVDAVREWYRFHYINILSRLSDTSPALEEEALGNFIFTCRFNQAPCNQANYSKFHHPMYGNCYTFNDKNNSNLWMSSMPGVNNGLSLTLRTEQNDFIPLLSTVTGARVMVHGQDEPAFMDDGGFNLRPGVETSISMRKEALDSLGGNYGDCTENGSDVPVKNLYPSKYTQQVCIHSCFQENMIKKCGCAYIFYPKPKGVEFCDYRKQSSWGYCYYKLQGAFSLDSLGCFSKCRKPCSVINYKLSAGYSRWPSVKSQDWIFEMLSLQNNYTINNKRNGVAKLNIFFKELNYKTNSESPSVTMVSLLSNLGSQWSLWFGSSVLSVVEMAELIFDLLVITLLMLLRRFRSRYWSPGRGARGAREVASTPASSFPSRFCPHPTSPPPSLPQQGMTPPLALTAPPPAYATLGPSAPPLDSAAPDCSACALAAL
T1 sequence (P37090 1-638): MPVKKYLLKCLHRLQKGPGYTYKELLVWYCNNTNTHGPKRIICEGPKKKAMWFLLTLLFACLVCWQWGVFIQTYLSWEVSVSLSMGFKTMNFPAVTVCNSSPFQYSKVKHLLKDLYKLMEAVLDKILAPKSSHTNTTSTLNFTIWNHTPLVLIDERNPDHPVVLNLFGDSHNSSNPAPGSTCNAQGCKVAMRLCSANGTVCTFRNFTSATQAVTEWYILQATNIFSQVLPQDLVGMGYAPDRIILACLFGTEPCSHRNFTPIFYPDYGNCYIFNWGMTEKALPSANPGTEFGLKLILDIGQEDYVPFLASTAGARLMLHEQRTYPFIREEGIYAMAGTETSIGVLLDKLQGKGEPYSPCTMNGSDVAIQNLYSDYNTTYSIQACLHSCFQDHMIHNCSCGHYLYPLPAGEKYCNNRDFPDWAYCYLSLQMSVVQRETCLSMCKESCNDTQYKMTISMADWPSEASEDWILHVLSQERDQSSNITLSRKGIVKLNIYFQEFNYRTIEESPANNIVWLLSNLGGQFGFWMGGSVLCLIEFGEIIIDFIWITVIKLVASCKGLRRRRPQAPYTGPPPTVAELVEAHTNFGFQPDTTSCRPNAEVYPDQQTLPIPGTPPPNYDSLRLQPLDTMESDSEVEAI
T1 sequence (P37091 1-650): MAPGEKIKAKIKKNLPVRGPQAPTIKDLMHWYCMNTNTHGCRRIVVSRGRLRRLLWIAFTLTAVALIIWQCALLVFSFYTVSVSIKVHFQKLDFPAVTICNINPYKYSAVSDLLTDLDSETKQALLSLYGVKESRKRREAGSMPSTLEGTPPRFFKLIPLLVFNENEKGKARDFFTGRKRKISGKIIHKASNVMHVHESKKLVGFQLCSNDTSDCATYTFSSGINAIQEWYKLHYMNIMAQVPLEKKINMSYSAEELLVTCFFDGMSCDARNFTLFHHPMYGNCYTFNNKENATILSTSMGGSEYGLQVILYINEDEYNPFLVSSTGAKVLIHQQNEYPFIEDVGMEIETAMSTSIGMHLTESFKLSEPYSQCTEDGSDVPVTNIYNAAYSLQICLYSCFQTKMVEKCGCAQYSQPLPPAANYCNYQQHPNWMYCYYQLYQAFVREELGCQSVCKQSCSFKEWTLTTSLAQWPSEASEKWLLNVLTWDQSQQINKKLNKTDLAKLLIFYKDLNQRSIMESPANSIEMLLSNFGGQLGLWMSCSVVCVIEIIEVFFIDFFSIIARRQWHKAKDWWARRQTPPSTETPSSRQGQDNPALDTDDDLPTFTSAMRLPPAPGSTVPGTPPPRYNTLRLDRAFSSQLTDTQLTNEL


Legend:
NL HBECs = assay: ASL height by confocal microscopy in normal lung (NL) HBECs; assay type: cell-based, human; conditions: Ringer with 50 mM NaCl exchanged for 100 mM POPSO; 3 h
Protocol: To label airway surface liquid, Ringer containing Texas Red-dextran (2 mg/ml; Invitrogen) was added to human bronchial epithelial culture mucosal surfaces. Perfluorocarbon was added mucosally to prevent evaporation of the airway surface liquid and the culture placed in a chamber containing 100 μl Ringer on the stage of a Leica SP5 confocal microscope with a 63× glycerol immersion objective. 5 points per culture were scanned and an average airway surface liquid height determined. For confocal microscopy human bronchial epithelial cultures were bathed serosally in a modified Ringer solution containing (mM): 116 NaCl, 10 NaHCO3, 5.1 KCl, 1.2 CaCl2, 1.2 MgCl2, 20 TES, 10 glucose, pH 7.4). At all other times, human bronchial epithelial cultures were maintained in a modified BEGM growth medium which contained 24 mM NaHCO3 gassed with 5% CO2.
To label the ASL, PBS containing 10 kDa Rhodamine dextran (0.2-2 mg/mL; Invitrogen, Carlsbad, Calif., USA) was added to HBEC mucosal surfaces as previously described (Tarran et al., Mol. Cell 8:149 (2001)). When added, peptides with or without 100 nM neutrophil elastase, 1 U/mL aprotinin, activated neutrophil supernatant (ANS) (Haynes et al., Am. J. Physiol. Heart Circ. Physiol. 294:H379 (2008)) or 10 μM sivelestat (Sigma-Aldrich, St Louis, Mo., USA) were added to the mucosal surface along with the Rhodamine dextran. Bumetanide (100 μM) was added to the serosal solution.

CF HBECs = conditions: Ringer with 50 mM NaCl exchanged for 100 mM POPSO; 3 h
αβγENaC = biological target: T1, αβγENaC; assay: Amiloride-sensitive whole cell current, two electrode voltage clamp, Xenopus laevis oocytes expressing αβγENaC; assay type: cell-based; conditions: PLUNC family member co-expressed with α,β,γ ENaC
Protocol: Xenopus laevis oocytes were harvested and injected as described (Donaldson, et al., J. Biol. Chem. 277:8338 (2002)). Defolliculated healthy stage V-VI oocytes were injected with 0.3 ng of CRNA of each ENaC subunit. Injected oocytes were kept in modified Barth's saline (in mM: 88 NaCl, 1 KCl, 2.4 NaHCO3, 0.3 Ca(NO3)2, 0.41 CaCl2, 0.82 MgSO4, and 15 HEPES, adjusted to pH 7.35 with Tris). Oocytes were studied 24 hr after injection using the two electrode voltage clamp technique as previously described (Donaldson, et al., J. Biol. Chem. 277:8338 (2002)). Oocytes were clamped at a holding potential of −60 mV. The change in amiloride-sensitive whole cell current as an indicator of ENaC activity was determined by subtracting the corresponding current value measured in the presence of 10 μM amiloride from that measured before the application of amiloride. Where appropriate, oocytes were incubated with G22-A39 or ABC for 1 h prior to recording. In some experiments β-ENaC^S518C was used which forms ENaCs that are locked into an open probability near 1.0 by exposure to the sulthydral reactive reagent [2-(Trimethyl-ammonium)ethyl]methanethiosulphonate bromide (MTSET). MTSET was added at a concentration of 1 mM to the oocyte bath as previously described (Snyder, J. Clin. Invest. 105: 45 (2000)).

Row | Molecule | NL ASL height (NL HBECs) | CF ASL height (CF HBECs) | amiloride-sensitive ENaC current relative to control, co-expression (αβγENaC)
1 | O=S(=O)(O)CC(O)CN1CCN(CC(O)CS(=O)(=O)O)CC1 (stereo not drawn) [POPSO, reference compound] | no effect | significantly elevated | –
2 | LPLUNC1: long PLUNC family member co-expressed in Xenopus oocytes (protein) TLSPTAVLILGPKVIKEKLTQELKDHNATSILQQLPLLSAMREKPAGGIPVLGSLVNTVLKHIIWLKVITANILQLQVKPSANDQELLVKIPLDMVAGFNTPLVKTIVEFHMTTEAQATIRMDTSASGPTRLVLSDCATSHGSLRIQLLHKLSFLVNALAKQVMNLLVPSLPNLVKNQLCPVIEASFNGMYADLLQLVKVPISLSIDRLEFDLLYPAIKGDTIQLYLGAKLLDSQGKVTKWFNNSAASLTMPTLDNIPFSLIVSQDVVKAAVAAVLSPEEFMVLLDSVLPESAHRLKSSIGLINEKAADKLGSTQIVKILTQDTPEFFIDQGHAKVAQLIVLEVFPSSEALRPLFTLGIEASSEAQFYTKGDQLILNLNNISSDRIQLMNSGIGWFQPDVLKNIITEIIHSILLPNQNGKLRSGVPVSLVKALGFEAAESSLTKDALVLTPASLWKPSSPVSQ | – | – | no significant ENaC current reduction
